Row | melting point | Structure (SMILES)
1 | 98 to 99 °C | CCCc1c(OCCCCCOc2ccccc2OCC(=O)O)ccc2c1OCCC2=O
2 | > 400 °C | O=c1c2ccc(-c3nnn[nH]3)cc2oc2ccc(-c3nnn[nH]3)cc12
3 | 155 to 157 °C | COc1cc(C2=CCCCC2)c(Cl)cc1C(=O)N1Cc2ccc(C(=O)N(C)CC(O)CO)n2Cc2ccccc21 (stereo not given)
4 | 185 to 188 °C | COc1ccccc1C(=O)Nc1ccc(C(=O)N2Cc3cccn3Cc3ccccc32)cc1
5 | 105 to 120 °C | COc1ccccc1-c1nc(C)c(-c2cccnc2)n1O
6 | 220 to 224 °C | Cc1ccnc(C(=O)c2[nH]c3cc(Cl)c(Cl)cc3c2CC(=O)O)c1
7 | 90 °C | COc1c(OC2CCC3(CC2)OCC(C)(C)CO3)ccnc1C
8 | 258 to 260 °C | COc1cc2nc(Cl)n3ncnc3c2cc1OC
9 | 160 to 164 °C | COc1cccc2c1Oc1sc(C)cc1C(=O)N2
10 | 105 to 110 °C | O=C(C1=NN(c2ccc(Cl)cc2Cl)C(c2ccc(Cl)cc2)C1)N1CCCCC1 (stereo not given)
11 | 213 to 215 °C | O=C(O)c1nc2c(=O)[nH]c3cc(C(F)(F)F)ccc3n2c1Cn1cnc(Cl)c1Cl
12 | > 250 °C | NCC1Cc2cc(C(F)(F)F)cc(-c3cc(F)ccc3F)c2O1 (stereo not given)
13 | 97 to 120 °C | CN(C(=O)N(C)n1cnc2ccccc2c1=O)c1ccc(Cl)cc1
14 | 94.5 °C | CCOC(=O)c1cnc2cc(Cl)ccc2c1N=[N+]=[N-]
15 | 157 to 159 °C | CCn1c(=O)n(OCc2ccccc2)c(=O)c2cc(F)c(N3CCC(NC(=O)OC(C)(C)C)C3)nc21 (stereo not given)
16 | 137 to 139 °C | CCCCC(=O)c1c(CN(CC)C(C)(C)C)nc2cc(OC)c(OC)cc2c1-c1ccc(OC)c(OC)c1
17 | 62 to 63.5 °C | CCc1ccc(CCc2ccccc2NC=O)nc1
18 | 227 to 230 °C | Nc1ccc(C=Cc2ccncn2)cc1
19 | 102 to 104 °C | CC(=O)c1nc2ccc(OC(C)C)cc2cc1OCc1ccccc1
20 | 132 to 133 °C | Cn1cc(C(=O)c2ccc3ccccc3c2)cc1C(=O)c1cccnc1
21 | 201 to 203 °C | COc1ccc(N2CCN(C(=O)[C@H](Cc3ccccc3)NC(=O)Nc3n[nH]c(=S)s3)CC2)cc1
22 | 150 to 155 °C | Brc1cc(-c2ccncc2)cnc1Br

Row | melting point | Structure (SMILES)
23 | 101 to 103 °C | COc1ccc(/C(C#N)=C/c2ccc(OC)c(OC3CCCC3)c2)cc1OC
24 | 175 to 178 °C | CNC(=O)CCC(=O)c1ccc(OCC(O)CNC(C)C)cc1 (stereo not given)
25 | 148 to 149 °C | CCOCOc1cc(C)ccc1-c1cc(-c2cccc([N+](=O)[O-])c2)c(C#N)c(N)n1
26 | 269 °C | COc1ccc(-c2[nH]nc3c2C(=O)c2c(NC(=O)NNC(=O)CCCc4ccccc4)cccc2-3)cc1
27 | 101 to 108 °C | C[C@H]([C@](O)(Cn1cncn1)c1ccc(F)cc1F)S(=O)(=O)N1CCN(c2ncccn2)CC1
28 | 115 to 116 °C | CSc1ccc(CCN2CCN(C(=O)c3ccc(N(CCOC(C)C)C(=O)CCl)cc3)CC2)cc1
29 | 182 °C | CC12Nc3ccccc3N1C(=O)c1ccccc12 (stereo not given)
30 | 196 to 198 °C | O=C(CNC(=O)c1ccc(N2CCN(C(=O)c3ccccc3C(F)(F)F)CC2)nn1)c1ccccc1
31 | 236 to 237 °C | CC(C)(C)c1ccc(S(=O)(=O)Nc2nc(-c3ncccn3)nc(OCCO)c2-c2cccs2)cc1
32 | 223 to 226 °C | COC1CCCC2=C(O)C3=C(C(=O)c4ccc(C(C)=O)cc4C3)C(O)C21 (stereo not given)
33 | 222 to 224 °C | Cc1ccccc1C=C1CCn2c1nc1ccc(CO)cc1c2=O
34 | 155 to 157 °C | CC(/C=C/n1ncc(-c2ccc(S(N)(=O)=O)cc2)c(-c2ccc(F)cc2)c1=O)C(F)(F)F (stereo not given)
35 | 153 °C | CC1(C)CC(NC=O)CC(C)(C)N1
36 | 96 to 98 °C | CNC(=S)NCCSCc1c[nH]cn1
37 | 70 to 71 °C | COc1ccc(S(=O)(=O)C[N+](=O)[O-])s1
38 | 40 to 40.5 °C | CCOC(=O)C=Cc1ccc(F)cc1F
39 | 118 °C | Cc1nnsc1CS(=O)(=O)c1ccccc1
40 | 169 to 171 °C | CCOC(=O)c1ncn(-c2nncs2)c1S(=O)(=O)NC(=O)Nc1nc(OC)cc(OC)n1
41 | 318 to 321 °C | COc1cc2c3nn(-c4ccc(Cl)cc4)c(=O)c-3c[nH]c2c(OC)n1
42 | 126 to 128 °C | CS(=O)c1c(N)nc(N)nc1Cl (stereo not given)
43 | 201 to 204 °C | O=C(Nc1cc[nH]n1)c1c(F)cccc1F
44 | 68 to 70 °C | COc1cccc(/C=C(/C(=O)O)c2cc(OC)c(OC)c(OC)c2)c1

Row | melting point | Structure (SMILES)
45 | 97 to 100 °C | O=C(NC(CC1CCCC1)C(=O)NC1CCCN(C(=O)c2ccccc2)CC1=O)c1ccco1 (stereo not given)
46 | 294 to 295 °C | C[C@@H](c1ccc(F)cc1)N1CCN(c2cc(Oc3cccc4[nH]c(=O)c(N)nc34)ncn2)CC1
47 | 220 °C | O=C(NC(Cc1ccc(OCc2ccoc2)cc1)C(=O)O)c1cn2nc(-c3ccc(Cl)cc3)ccc2n1 (stereo not given)
48 | 217 °C | O=C(O)Cc1c(C(=O)c2ccc3c(c2)CCO3)[nH]c2cc(Cl)ccc12
49 | 144 to 146 °C | O=S(=O)(Nc1ccc(Cl)cc1)c1ccc(Cl)cc1
50 | 149 to 151 °C | CCOC(=O)CC[C@H](NC(=O)c1ccc(CN(C=O)CC2CNc3nc(NC(=O)C(C)(C)C)nc(O)c3C2)cc1)C(=O)OCC (stereo not given in full)
51 | 102 °C | COc1cccc2c1C(=O)C(CC=O)C2 (racemic)
52 | 197 to 198 °C | O=[N+]([O-])c1cc([N+](=O)[O-])c(Nc2ccc(Cl)c3ccccc23)c(C(F)(F)F)c1
53 | 175 to 179 °C | O=C(O)c1c(O)cccc1-n1cccn1
54 | 204 to 206 °C | Nc1ccc([N+](=O)[O-])cc1S(=O)(=O)N1CCOCC1
55 | 148 to 149 °C | COc1ccc(-c2[nH]cnc2-c2cc(OC)c([N+](=O)[O-])c(OC)c2)cc1O
56 | 209 to 211 °C | COc1cc(C(C)C)c2oc3ccccc3c2c1C(=O)Nc1c(Cl)cncc1Cl
57 | 111 to 113 °C | Cc1ccc(Cn2c(=O)cc(C(C)C(=O)Oc3ccccc3)c3cc(C)ccc32)cc1 (stereo not given)
58 | 173 to 175 °C | O=C(/C=C/c1ccccc1Cl)Nc1ccc(-n2nc(C(F)(F)F)cc2C(F)(F)F)cc1
59 | 147 to 148 °C | CC(=O)OCC(N)C(=O)Nn1cccc1 (stereo not given)
60 | 159 to 160 °C | CC(C)(C)COc1ccc(NC(=O)c2cnn(CC(F)(F)F)c2)cc1C#N
61 | 101 to 102 °C | CN(CCN(CCC12CC3CC(CC(C3)C1)C2)C(=O)NCCCc1ccncc1)C(=O)CC(C)(C)C
62 | 86 to 89 °C | O=C(Nc1ccc(Cl)c(Cl)c1)OCCCC(O)c1ccccc1 (stereo not given)
63 | 182 to 184 °C | Cc1ccc(C=CC(=O)C=Cc2ccc([N+](=O)[O-])cc2)cc1
64 | 115 to 118 °C | CCCNC(=O)[C@H](C)C[C@H](O)[C@H](CC1CCCCC1)NC(=O)[C@H](Cc1cscn1)NC(=O)[C@@H](CC(=O)N(C)Cc1ccccc1)Cc1ccccc1
65 | 113 to 116 °C | CC(=O)N1CCC(C(=O)c2nccn2CCc2ccccc2)CC1
66 | 66 to 69 °C | CCCCCCCc1cc2cc(C(=O)OCC)ccc2[nH]1

Row | melting point | Structure (SMILES)
67 | 148 to 150 °C | CCN(CC)CCNC(=O)c1ccc(Nc2nccc(-c3cccnc3)n2)cc1
68 | 110 to 112 °C | CCN(CC)C(=O)C(C)(C)C(=O)O
69 | 138 °C | C=Cc1ccc2c(c1CCC(=O)OC)CCC(NS(=O)(=O)c1ccc(Cl)cc1)C2 (stereo not given)
70 | 95 to 97 °C | O=C(O)c1cc(F)c(F)c(C2CC2)c1F
71 | 131 to 132 °C | CCCCCCCCNC(=O)C=CSC(C(=O)c1ccccc1)C(=O)c1cccn1C (stereo not given)
72 | 179 °C | CCCCc1nc2c(=O)[nH]ccc2n1Cc1ccc(-c2ccccc2C#N)cc1
73 | 104 to 105 °C | COc1ccc(C2(C#Cc3ccc(Cl)cc3)CCC(=O)CC2)cc1OC1CCCC1
74 | 227 to 229 °C | CCC(C)C(NC(=O)OC)C(=O)NN(Cc1ccc(-c2nccs2)cc1)CC(O)C(Cc1ccccc1)NC(=O)C(NC(=O)OC)C(C)C (stereo not given)
75 | 121 to 127 °C | Cc1c(Cc2ccccc2)c(=O)n(Cc2ccccc2)c2cc(OCC(=O)NO)cc(OCC(=O)NO)c12
76 | 149 to 151 °C | CC(C)N(C(N)=S)c1ccc2c(c1)OCO2
77 | 172 to 175 °C | O=C1SC(CCCC#Cc2ccc(Cl)cc2)(S(=O)(=O)c2ccc(I)cc2)C(=O)N1Cc1ccc([N+](=O)[O-])cc1 (stereo not given)
78 | 197 to 198 °C | OCC(=C(c1ccc(F)cc1)c1ccc(F)cc1)n1nnnc1-c1ccccc1
79 | 165 °C | COc1ccc(N2CCOCC2)c2sc(C(=O)NCC(=O)c3cccs3)nc12
80 | 182 to 184 °C | CCCc1nn(Cc2ccccc2)c(C(N)=O)c1NC(=O)c1cc(S(=O)(=O)N2CCN(C)CC2)ccc1OCC
81 | 195 to 196 °C | COCC(=O)NCc1cccc(-c2csc(N=C(N)N)n2)n1
82 | 186 °C | COc1ccc2ccc3c(c2c1)CC(NC(C)=O)CO3 (stereo not given)
83 | 157 to 159 °C | N#Cc1cc(CCNc2ncnc3c(F)ccc(F)c23)ccc1Oc1cc(C(F)(F)F)ccn1
84 | 157 to 160 °C | Cc1cn(NCCCc2ccncc2F)c2ccc(OC(=O)NN3CCc4ccccc4C3)cc12
85 | 81 to 83 °C | CCC(O)(c1ccsc1)c1oc(C)nc1C (stereo not given)
86 | 163 to 166 °C | NNc1nncc(-c2cccc(Cl)c2)n1
87 | 266 to 268 °C | CC(=O)Nc1cc2c(cc1[N+](=O)[O-])[C@@H](N1CCCC1=O)[C@H](O)C(C)(C)O2 (relative stereo)
88 | 103 to 105 °C | CCOC(Cc1ccc(OCCN2COc3ccccc3C2=O)cc1)C(=O)O (stereo not given)

Row | Structure (SMILES) | melting point
89 | COc1ccccc1N1CCN(C2(C(=O)c3ccc(Cl)cc3)CC2)CC1 | 103 to 104 °C
90 | COc1cc(C2c3cc4c(cc3C(NC3=CC(=O)N(Cc5ccc(F)cc5)C3=O)C3COC(=O)C23)OCO4)cc(OC)c1O (stereo not given) | 214 to 216 °C
91 | CN1CCN(c2ccc(Br)cc2)CC1 | 78 to 80 °C
92 | O=C(O)C(CC1CC2CCN1CC2)(c1ccccc1)c1ccccc1 (stereo not given) | 180 to 185 °C
93 | CN1C(=O)[C@H](NC(=O)CNc2ccc(C(F)(F)F)cc2)N=C(c2ccccc2)c2ccccc21 | 218 to 219 °C
94 | c1ccc(-c2ccc(C3CN4CCC3CC4)cc2)cc1 (single isomer, unassigned; (+)) | 85 to 86 °C
95 | Cc1nc(C=Cc2nc3ccc(F)cc3c(=O)n2-c2ccccc2Br)cs1 | 233 to 234 °C
